Experimental data taken from BindingDB's records for doi:10.1021/jm00029a001 (Bristol-Myers Squibb Pharmaceutical Research Institute, 1994).

Target: Endothelin-1 receptor (Rattus norvegicus) (UniProt P26684)
Experiment: Ability to inhibit [125I]ET1 binding to vascular smooth muscle (vsm)- A10 cells

Sequence of Endothelin-1 receptor (Rattus norvegicus) (P26684 whole entry, looked up): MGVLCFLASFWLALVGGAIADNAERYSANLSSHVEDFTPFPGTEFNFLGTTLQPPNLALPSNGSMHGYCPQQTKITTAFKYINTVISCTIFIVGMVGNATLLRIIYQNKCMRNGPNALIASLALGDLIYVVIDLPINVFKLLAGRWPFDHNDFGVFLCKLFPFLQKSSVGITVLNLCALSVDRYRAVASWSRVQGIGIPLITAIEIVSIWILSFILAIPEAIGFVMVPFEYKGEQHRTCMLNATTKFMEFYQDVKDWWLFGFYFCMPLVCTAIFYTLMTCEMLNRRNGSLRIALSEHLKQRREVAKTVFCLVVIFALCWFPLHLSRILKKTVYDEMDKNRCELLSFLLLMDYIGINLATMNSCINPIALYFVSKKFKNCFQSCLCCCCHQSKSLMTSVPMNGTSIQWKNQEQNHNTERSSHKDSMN

Compound	IC50 [µM]
Cc1noc(NS(=O)(=O)c2ccc(C#N)cc2)c1C [4-Cyano-N-(3,4-dimethyl-isoxazol-5-yl)-benzenesulfonamide]	> 32
Cc1cc(NS(=O)(=O)c2ccc(N)cc2)on1 [4-Amino-N-(3-methyl-isoxazol-5-yl)-benzenesulfonamide]	28
Cc1noc(NS(=O)(=O)c2ccc(N(C)C)cc2)c1C [4-Dimethylamino-N-(3,4-dimethyl-isoxazol-5-yl)-benzenesulfonamide]	84

The remaining lines, values ahead:

IC50 [µM]	Compound
27	CCCNc1ccc(S(=O)(=O)Nc2onc(C)c2C)cc1 [N-(3,4-Dimethyl-isoxazol-5-yl)-4-propylamino-benzenesulfonamide]
9.8	Cc1noc(NS(=O)(=O)c2ccc(NCc3ccccc3)cc2)c1C [4-Benzylamino-N-(3,4-dimethyl-isoxazol-5-yl)-benzenesulfonamide]
2.8	Cc1noc(NS(=O)(=O)c2cccc3c(CN(C)C)cccc23)c1C [5-Dimethylaminomethyl-naphthalene-1-sulfonic acid (3,4-dimethyl-isoxazol-5-yl)-amide]

Target: not listed separately
Experiment: Selectivity for the ET-A receptor over ETB receptor was observed in rat cerebellar membranes

Ki [µM]	Compound
> 200	Cc1noc(NS(=O)(=O)c2cccc3c(N(C)C)cccc23)c1C [BMS-182874]
